Values quoted from earlier work in article PMC7576618 (British Journal of Clinical Pharmacology, 2020).
Like-named read-outs stand apart in the source and are kept apart here.

Experiments:
mGlu2 receptor [1] = conditions: read-out: EC50 (assay system used by Eli Lilly); cited from earlier work
mGlu2 receptor [2] = conditions: read-out: in vitro EC50 for mGlu2 receptor; cited from earlier work
[3] = humans; cited from earlier work
[4] = active compound LY2812223; cited from earlier work

SMILES: N[C@@]1(C(=O)O)CC[C@H]2[C@H](C(=O)O)[C@H]21 [LY354740, (+)‐2‐aminobicyclo[3.1.0]hexane‐2,6‐dicarboxylic acid]
- EC50 (mGlu2 receptor [1]): 5.1 nM
- EC50 (mGlu2 receptor [2]): 18.3 nM

SMILES: CSCC[C@H](N)C(=O)N[C@@]1(C(=O)O)CS(=O)(=O)[C@H]2[C@H](C(=O)O)[C@H]21 [LY2140023]
- plasma exposure of the prodrug relative to that of LY404039 [3]: approximately 30%

SMILES: C[C@H](N)C(=O)N[C@@]1(C(=O)O)C[C@@H](Sc2nnc[nH]2)[C@H]2[C@H](C(=O)O)[C@H]21 [LY2979165]
- plasma levels of prodrug relative to its active compound [4]: < 1%
